Experimental data taken from the kinase profiling compilation of Christmann-Franck et al. (2016).

Assays:
Assay in all cases: KINOMEscan competition binding
Settings in all cases: compound 1.0 µM
AAK1 (human) = AAK1 (human) (UniProt Q2M2I8)
CAMK2A (human) = CAMK2A (human) (UniProt Q9UQM7)
CDKL1 (human) = CDKL1 (human) (UniProt Q00532)
CSNK1E (human) = CSNK1E (human) (UniProt P49674)
DYRK2 (human) = DYRK2 (human) (UniProt Q92630)
FER (human) = FER (human) (UniProt P16591)
HCK (human) = HCK (human) (UniProt P08631)
IRAK3 (human) = IRAK3 (human) (UniProt Q9Y616)
LRRK2 (human) = LRRK2 (human) (UniProt Q5S007)
LTK (human) = LTK (human) (UniProt P29376)
MAP2K6 (human) = MAP2K6 (human) (UniProt P52564)
MAP2K7 (human) = MAP2K7 (human) (UniProt O14733)
MAP3K2 (human) = MAP3K2 (human) (UniProt Q9Y2U5)
MAP3K3 (human) = MAP3K3 (human) (UniProt Q99759)
MAPK13 (human) = MAPK13 (human) (UniProt O15264)
MAPK8 (human) = MAPK8 (human) (UniProt P45983)
NTRK2 (human) = NTRK2 (human) (UniProt Q16620)
PAK6 (human) = PAK6 (human) (UniProt Q9NQU5)
PDGFRB (human) = PDGFRB (human) (UniProt P09619)
PI4KB (human) = PI4KB (human) (UniProt Q9UBF8)
[1] = system: PIK3CA (human), P42336 [M1043I]
PIM2 (human) = PIM2 (human) (UniProt Q9P1W9)
PIM3 (human) = PIM3 (human) (UniProt Q86V86)
PIP5K1C (human) = PIP5K1C (human) (UniProt O60331)
PKN1 (human) = PKN1 (human) (UniProt Q16512)
PLK1 (human) = PLK1 (human) (UniProt P53350)
PLK3 (human) = PLK3 (human) (UniProt Q9H4B4)
PRKACA (human) = PRKACA (human) (UniProt P17612)
PRKD2 (human) = PRKD2 (human) (UniProt Q9BZL6)
[2] = system: RET (human), P07949 [V804L]
RIPK2 (human) = RIPK2 (human) (UniProt O43353)
RPS6KA1 KD1 (human) = RPS6KA1 KD1 (human) (UniProt Q15418)
RPS6KA6 KD1 (human) = RPS6KA6 KD1 (human) (UniProt Q9UK32)
SGK3 (human) = SGK3 (human) (UniProt Q96BR1)
STK17B (human) = STK17B (human) (UniProt O94768)
STK24 (human) = STK24 (human) (UniProt Q9Y6E0)
STK32A (human) = STK32A (human) (UniProt Q8WU08)
STK32B (human) = STK32B (human) (UniProt Q9NY57)
TIE1 (human) = TIE1 (human) (UniProt P35590)
TLK2 (human) = TLK2 (human) (UniProt Q86UE8)
TTK (human) = TTK (human) (UniProt P33981)
ULK3 (human) = ULK3 (human) (UniProt Q6PHR2)
YES1 (human) = YES1 (human) (UniProt P07947)

Sequence of DYRK2 (human) (Q92630 whole entry, looked up): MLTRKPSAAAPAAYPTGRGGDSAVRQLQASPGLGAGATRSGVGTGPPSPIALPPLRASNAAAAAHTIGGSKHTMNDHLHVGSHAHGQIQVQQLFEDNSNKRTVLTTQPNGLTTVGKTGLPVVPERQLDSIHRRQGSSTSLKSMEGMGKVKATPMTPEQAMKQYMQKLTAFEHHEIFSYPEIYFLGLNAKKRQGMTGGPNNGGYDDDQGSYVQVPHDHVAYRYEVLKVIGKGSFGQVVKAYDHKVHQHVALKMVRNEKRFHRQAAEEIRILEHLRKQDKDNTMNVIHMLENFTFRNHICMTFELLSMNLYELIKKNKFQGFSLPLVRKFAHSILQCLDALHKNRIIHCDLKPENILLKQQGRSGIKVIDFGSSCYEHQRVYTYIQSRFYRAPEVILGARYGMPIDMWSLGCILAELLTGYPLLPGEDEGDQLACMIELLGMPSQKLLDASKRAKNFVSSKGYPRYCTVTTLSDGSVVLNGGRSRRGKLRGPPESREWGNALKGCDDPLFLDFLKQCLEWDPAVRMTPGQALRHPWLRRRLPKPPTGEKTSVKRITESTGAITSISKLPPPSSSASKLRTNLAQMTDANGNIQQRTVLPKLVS
Sequence of PLK3 (human) (Q9H4B4 whole entry, looked up): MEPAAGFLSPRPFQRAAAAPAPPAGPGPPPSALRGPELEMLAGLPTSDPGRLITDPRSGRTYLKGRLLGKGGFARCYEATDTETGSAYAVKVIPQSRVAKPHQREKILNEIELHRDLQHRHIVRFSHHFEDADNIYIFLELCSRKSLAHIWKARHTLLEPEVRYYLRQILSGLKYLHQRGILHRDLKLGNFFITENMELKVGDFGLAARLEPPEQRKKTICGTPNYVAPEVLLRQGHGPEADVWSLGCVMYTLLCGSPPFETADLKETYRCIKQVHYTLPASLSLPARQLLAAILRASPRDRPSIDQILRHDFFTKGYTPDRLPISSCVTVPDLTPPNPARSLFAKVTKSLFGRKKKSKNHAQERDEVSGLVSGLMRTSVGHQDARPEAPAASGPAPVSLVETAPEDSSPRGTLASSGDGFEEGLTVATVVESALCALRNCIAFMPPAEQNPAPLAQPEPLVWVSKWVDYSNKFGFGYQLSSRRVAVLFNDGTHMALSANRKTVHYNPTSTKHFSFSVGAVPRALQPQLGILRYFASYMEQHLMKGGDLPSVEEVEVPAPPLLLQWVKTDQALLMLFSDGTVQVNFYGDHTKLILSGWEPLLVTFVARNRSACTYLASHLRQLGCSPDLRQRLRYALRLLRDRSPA
Sequence of MAP3K2 (human) (Q9Y2U5 whole entry, looked up): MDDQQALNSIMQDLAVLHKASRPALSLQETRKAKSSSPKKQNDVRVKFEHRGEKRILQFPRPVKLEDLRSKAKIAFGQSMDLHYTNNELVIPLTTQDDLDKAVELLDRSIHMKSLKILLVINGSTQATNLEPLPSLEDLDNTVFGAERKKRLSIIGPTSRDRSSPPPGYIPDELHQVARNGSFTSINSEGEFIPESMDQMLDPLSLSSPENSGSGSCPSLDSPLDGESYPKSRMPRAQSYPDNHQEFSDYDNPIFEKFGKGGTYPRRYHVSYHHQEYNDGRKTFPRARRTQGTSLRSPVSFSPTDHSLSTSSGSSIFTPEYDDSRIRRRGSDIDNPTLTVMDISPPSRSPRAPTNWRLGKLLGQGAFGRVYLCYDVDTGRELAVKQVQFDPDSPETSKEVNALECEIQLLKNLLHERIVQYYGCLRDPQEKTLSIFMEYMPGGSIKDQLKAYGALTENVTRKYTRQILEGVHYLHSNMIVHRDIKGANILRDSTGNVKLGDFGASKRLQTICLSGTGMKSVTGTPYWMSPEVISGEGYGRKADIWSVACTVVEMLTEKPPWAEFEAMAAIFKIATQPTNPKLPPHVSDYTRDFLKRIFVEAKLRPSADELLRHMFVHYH
Sequence of LRRK2 (human) (Q5S007 whole entry, looked up): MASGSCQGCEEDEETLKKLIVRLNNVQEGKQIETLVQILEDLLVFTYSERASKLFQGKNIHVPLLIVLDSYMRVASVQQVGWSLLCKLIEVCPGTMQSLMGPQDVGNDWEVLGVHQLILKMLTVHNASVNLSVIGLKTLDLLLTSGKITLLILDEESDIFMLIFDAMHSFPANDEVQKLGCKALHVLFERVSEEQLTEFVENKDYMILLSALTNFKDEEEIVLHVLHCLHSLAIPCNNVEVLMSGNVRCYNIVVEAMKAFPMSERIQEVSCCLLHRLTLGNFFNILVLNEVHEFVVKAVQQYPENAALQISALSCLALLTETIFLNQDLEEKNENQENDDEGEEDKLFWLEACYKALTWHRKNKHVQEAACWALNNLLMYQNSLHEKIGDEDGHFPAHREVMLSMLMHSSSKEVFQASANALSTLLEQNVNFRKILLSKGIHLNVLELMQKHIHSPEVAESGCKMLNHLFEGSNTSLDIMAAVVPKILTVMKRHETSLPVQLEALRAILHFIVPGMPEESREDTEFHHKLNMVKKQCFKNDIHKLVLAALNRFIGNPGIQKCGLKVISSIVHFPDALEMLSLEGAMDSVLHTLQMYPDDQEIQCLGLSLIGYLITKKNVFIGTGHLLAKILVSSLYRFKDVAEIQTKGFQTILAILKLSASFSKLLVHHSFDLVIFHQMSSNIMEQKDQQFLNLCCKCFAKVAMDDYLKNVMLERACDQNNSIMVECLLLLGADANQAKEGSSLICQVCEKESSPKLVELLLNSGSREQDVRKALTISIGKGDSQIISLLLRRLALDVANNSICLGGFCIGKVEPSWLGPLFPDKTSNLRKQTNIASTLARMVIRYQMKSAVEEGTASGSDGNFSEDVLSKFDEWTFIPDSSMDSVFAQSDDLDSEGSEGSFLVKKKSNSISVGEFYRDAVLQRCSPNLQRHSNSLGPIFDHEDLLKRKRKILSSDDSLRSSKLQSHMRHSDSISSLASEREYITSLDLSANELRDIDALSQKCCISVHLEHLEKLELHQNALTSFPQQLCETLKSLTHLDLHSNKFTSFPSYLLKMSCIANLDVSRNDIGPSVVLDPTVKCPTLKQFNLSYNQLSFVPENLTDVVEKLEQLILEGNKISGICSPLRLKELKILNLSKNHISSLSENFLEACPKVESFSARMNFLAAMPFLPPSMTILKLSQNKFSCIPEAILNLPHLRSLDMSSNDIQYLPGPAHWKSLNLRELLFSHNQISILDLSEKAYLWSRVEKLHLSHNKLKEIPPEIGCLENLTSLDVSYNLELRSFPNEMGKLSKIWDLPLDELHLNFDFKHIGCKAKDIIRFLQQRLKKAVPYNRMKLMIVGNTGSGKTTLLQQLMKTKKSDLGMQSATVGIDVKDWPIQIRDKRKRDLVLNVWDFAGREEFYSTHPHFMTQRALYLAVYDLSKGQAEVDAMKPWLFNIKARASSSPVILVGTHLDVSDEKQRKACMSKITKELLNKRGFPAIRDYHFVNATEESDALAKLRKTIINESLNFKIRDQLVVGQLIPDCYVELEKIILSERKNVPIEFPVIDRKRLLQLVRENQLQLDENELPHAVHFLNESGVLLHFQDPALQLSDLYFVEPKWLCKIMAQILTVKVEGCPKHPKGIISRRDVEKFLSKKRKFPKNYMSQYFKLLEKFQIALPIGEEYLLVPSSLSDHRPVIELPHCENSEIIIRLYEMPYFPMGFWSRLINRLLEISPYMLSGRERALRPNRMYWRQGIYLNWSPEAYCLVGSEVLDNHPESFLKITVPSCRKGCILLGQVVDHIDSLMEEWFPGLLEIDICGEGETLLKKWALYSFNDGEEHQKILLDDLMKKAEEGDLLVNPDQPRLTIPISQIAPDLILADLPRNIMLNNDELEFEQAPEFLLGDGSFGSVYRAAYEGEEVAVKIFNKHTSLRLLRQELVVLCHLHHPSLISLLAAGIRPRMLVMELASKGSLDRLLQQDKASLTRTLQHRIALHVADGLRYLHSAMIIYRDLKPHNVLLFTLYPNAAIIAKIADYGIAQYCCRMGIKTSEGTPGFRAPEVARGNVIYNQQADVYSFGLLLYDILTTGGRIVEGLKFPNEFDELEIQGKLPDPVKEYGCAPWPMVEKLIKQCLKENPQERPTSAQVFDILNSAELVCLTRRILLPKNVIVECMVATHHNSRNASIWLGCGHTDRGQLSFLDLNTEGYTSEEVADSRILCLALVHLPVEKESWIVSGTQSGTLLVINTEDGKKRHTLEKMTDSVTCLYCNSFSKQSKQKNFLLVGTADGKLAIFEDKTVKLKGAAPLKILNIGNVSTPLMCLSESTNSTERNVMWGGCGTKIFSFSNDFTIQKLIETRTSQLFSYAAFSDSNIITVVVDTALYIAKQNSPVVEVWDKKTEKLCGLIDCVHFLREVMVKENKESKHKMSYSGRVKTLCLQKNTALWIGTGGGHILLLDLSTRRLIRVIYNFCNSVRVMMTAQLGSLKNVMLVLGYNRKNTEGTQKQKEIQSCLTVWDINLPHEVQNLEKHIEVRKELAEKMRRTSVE
Sequence of PIP5K1C (human) (O60331 whole entry, looked up): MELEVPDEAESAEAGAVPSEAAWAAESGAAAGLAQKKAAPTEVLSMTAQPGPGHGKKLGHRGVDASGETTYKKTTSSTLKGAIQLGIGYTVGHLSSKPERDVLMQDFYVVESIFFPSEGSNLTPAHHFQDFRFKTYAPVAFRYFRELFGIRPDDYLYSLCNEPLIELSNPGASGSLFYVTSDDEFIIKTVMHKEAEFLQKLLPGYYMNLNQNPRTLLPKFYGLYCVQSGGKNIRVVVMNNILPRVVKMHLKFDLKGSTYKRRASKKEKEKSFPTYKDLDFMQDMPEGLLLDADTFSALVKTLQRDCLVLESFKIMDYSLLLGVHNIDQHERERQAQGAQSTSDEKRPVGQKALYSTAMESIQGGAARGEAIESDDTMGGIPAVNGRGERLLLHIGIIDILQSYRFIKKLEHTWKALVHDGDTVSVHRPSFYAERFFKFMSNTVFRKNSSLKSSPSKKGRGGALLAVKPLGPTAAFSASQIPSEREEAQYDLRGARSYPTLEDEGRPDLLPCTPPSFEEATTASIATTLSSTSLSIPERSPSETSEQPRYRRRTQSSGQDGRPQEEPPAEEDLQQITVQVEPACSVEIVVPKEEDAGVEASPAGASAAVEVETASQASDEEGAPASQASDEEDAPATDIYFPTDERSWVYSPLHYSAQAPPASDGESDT

Compound: CN(C)C/C=C/C(=O)Nc1cccc(C(=O)Nc2ccc(Nc3nccc(-c4c(-c5ccccc5)nn5ccccc45)n3)cc2)c1
- kinase still bound, per cent of control (AAK1 (human)): 100%
- kinase still bound, per cent of control (CAMK2A (human)): 100%
- kinase still bound, per cent of control (CDKL1 (human)): 100%
- kinase still bound, per cent of control (CSNK1E (human)): 0%
- kinase still bound, per cent of control (DYRK2 (human)): 100%
- kinase still bound, per cent of control (FER (human)): 87%
- kinase still bound, per cent of control (HCK (human)): 23%
- kinase still bound, per cent of control (IRAK3 (human)): 64%
- kinase still bound, per cent of control (LRRK2 (human)): 72%
- kinase still bound, per cent of control (LTK (human)): 83%
- kinase still bound, per cent of control (MAP2K6 (human)): 56%
- kinase still bound, per cent of control (MAP2K7 (human)): 89%
- kinase still bound, per cent of control (MAP3K2 (human)): 52%
- kinase still bound, per cent of control (MAP3K3 (human)): 68%
- kinase still bound, per cent of control (MAPK13 (human)): 100%
- kinase still bound, per cent of control (MAPK8 (human)): 0%
- kinase still bound, per cent of control (NTRK2 (human)): 14%
- kinase still bound, per cent of control (PAK6 (human)): 100%
- kinase still bound, per cent of control (PDGFRB (human)): 0.2%
- kinase still bound, per cent of control (PI4KB (human)): 69%
- kinase still bound, per cent of control [1]: 100%
- kinase still bound, per cent of control (PIM2 (human)): 100%
- kinase still bound, per cent of control (PIM3 (human)): 94%
- kinase still bound, per cent of control (PIP5K1C (human)): 87%
- kinase still bound, per cent of control (PKN1 (human)): 100%
- kinase still bound, per cent of control (PLK1 (human)): 100%
- kinase still bound, per cent of control (PLK3 (human)): 100%
- kinase still bound, per cent of control (PRKACA (human)): 99%
- kinase still bound, per cent of control (PRKD2 (human)): 15%
- kinase still bound, per cent of control [2]: 89%
- kinase still bound, per cent of control (RIPK2 (human)): 12%
- kinase still bound, per cent of control (RPS6KA1 KD1 (human)): 100%
- kinase still bound, per cent of control (RPS6KA6 KD1 (human)): 91%
- kinase still bound, per cent of control (SGK3 (human)): 91%
- kinase still bound, per cent of control (STK17B (human)): 100%
- kinase still bound, per cent of control (STK24 (human)): 88%
- kinase still bound, per cent of control (STK32A (human)): 35%
- kinase still bound, per cent of control (STK32B (human)): 30%
- kinase still bound, per cent of control (TIE1 (human)): 23%
- kinase still bound, per cent of control (TLK2 (human)): 100%
- kinase still bound, per cent of control (TTK (human)): 94%
- kinase still bound, per cent of control (ULK3 (human)): 84%
- kinase still bound, per cent of control (YES1 (human)): 12%

Compound: CN(C)C/C=C/C(=O)Nc1cccc(C(=O)Nc2ccc(Nc3nccc(/C(C#N)=C4\Nc5ccccc5S4)n3)cc2)c1
- kinase still bound, per cent of control (AAK1 (human)): 100%
- kinase still bound, per cent of control (CAMK2A (human)): 100%
- kinase still bound, per cent of control (CDKL1 (human)): 66%
- kinase still bound, per cent of control (CSNK1E (human)): 41%
- kinase still bound, per cent of control (DYRK2 (human)): 15%
- kinase still bound, per cent of control (FER (human)): 82%
- kinase still bound, per cent of control (HCK (human)): 100%
- kinase still bound, per cent of control (IRAK3 (human)): 51%
- kinase still bound, per cent of control (LRRK2 (human)): 57%
- kinase still bound, per cent of control (LTK (human)): 100%
- kinase still bound, per cent of control (MAP2K6 (human)): 100%
- kinase still bound, per cent of control (MAP2K7 (human)): 100%
- kinase still bound, per cent of control (MAP3K2 (human)): 100%
- kinase still bound, per cent of control (MAP3K3 (human)): 100%
- kinase still bound, per cent of control (MAPK13 (human)): 86%
- kinase still bound, per cent of control (MAPK8 (human)): 0%
- kinase still bound, per cent of control (NTRK2 (human)): 100%
- kinase still bound, per cent of control (PAK6 (human)): 100%
- kinase still bound, per cent of control (PDGFRB (human)): 35%
- kinase still bound, per cent of control (PI4KB (human)): 65%
- kinase still bound, per cent of control [1]: 100%
- kinase still bound, per cent of control (PIM2 (human)): 51%
- kinase still bound, per cent of control (PIM3 (human)): 100%
- kinase still bound, per cent of control (PIP5K1C (human)): 100%
- kinase still bound, per cent of control (PKN1 (human)): 92%
- kinase still bound, per cent of control (PLK1 (human)): 96%
- kinase still bound, per cent of control (PLK3 (human)): 59%
- kinase still bound, per cent of control (PRKACA (human)): 88%
- kinase still bound, per cent of control (PRKD2 (human)): 100%
- kinase still bound, per cent of control [2]: 100%
- kinase still bound, per cent of control (RIPK2 (human)): 100%
- kinase still bound, per cent of control (RPS6KA1 KD1 (human)): 100%
- kinase still bound, per cent of control (RPS6KA6 KD1 (human)): 100%
- kinase still bound, per cent of control (SGK3 (human)): 97%
- kinase still bound, per cent of control (STK17B (human)): 100%
- kinase still bound, per cent of control (STK24 (human)): 100%
- kinase still bound, per cent of control (STK32A (human)): 100%
- kinase still bound, per cent of control (STK32B (human)): 99%
- kinase still bound, per cent of control (TIE1 (human)): 70%
- kinase still bound, per cent of control (TLK2 (human)): 100%
- kinase still bound, per cent of control (TTK (human)): 100%
- kinase still bound, per cent of control (ULK3 (human)): 100%
- kinase still bound, per cent of control (YES1 (human)): 100%
